Paper PMC7290864, “Allosteric Antagonism of the A2A Adenosine Receptor by a Series of Bitopic Ligands” (Cells, 2020)

Columns and labels:
human A2AAR [1] = target: T1, human A2AAR (Homo sapiens, UniProt P29274); experiment: Fluorescent ligand MRS7416 binding to intact HEK293 cells (flow cytometry); details: for Ki: displacement of 15 nM fluorescent MRS7416, intact cells, 37 °C, 60 min; for Times weaker in displacing MRS7416 binding than radioligand binding: fluorescent versus radioligand Ki
T1 construct: expressed in transfected cells; host or cells: HEK293 cells stably expressing the human A2AAR
Experimental: Cells were plated in 96-well plates and grow overnight. In saturation binding experiments with fluorescent antagonist MRS7416, various concentrations were incubated in cell culture medium with control HEK293 cells or HEK293 cells expressing the A2AAR for 60 min at 37 °C in an atmosphere containing 5% CO2. […] At the end the reaction, the medium was removed, and cells were washed twice with PBS. After washing, 0.2 mL 0.1% EDTA solution was added to each well, and cells were incubated at 37 °C for 10 min. Following cell detachment and mixing of cells, the intensity of fluorescence emission of each sample was measured by using flow cytometry as previously described. […] Samples were maintained in the dark during the analysis to avoid photobleaching. Mean fluorescence intensity (MFI) was determined in the FL-1 channel in log mode. Ten thousand events were analyzed per sample. Data were collected using Cell Quest Pro software (BD, Franklin Lakes, NJ, USA) and analyzed by Cyflogic v. 1.2.1 software (CyFlo, Ltd., Turku, Finland).

human A2AAR [2] = target: T1, human A2AAR; experiment: [^3H]CGS21680 radioligand binding, HEK293 membranes; details: for Ki: 5 nM [^3H]CGS21680, membranes, 25 °C, 60 min; for [^3H]CGS21680 binding, percent effect of the fluorophore amide alone: at a concentration of 10 µM
Experimental: (§1) HEK293 cells expressing the human A2AAR were cultured in DMEM supplemented with 10% fetal bovine serum, 100 Units/mL penicillin, 100 µg/mL streptomycin and 2 µmol/mL glutamine. To prepare cell membranes, cells were detached from plates by scraping into PBS and centrifuged at 250× g for 5 min. The resulting pellets were re-suspended in ice-cold Tris-HCl buffer (50 mM, pH 7.4) and homogenized. After homogenization and suspension, cells were first centrifuged at 1000× g for 10 min and the pellet was discarded. The suspension was then re-centrifuged at 20,000× g for 60 min at 4 °C. The pellets were re-suspended, split into aliquots and stored at −80 °C. The protein concentration was measured using the Bradford assay.
(§2) Radioligand binding assays were performed using membranes prepared from HEK293 cells expressing human the A2AAR using both agonist and antagonist radioligands as previously described. […] (5 nM) or [^3H]ZM241385 (1 nM) and membrane preparations (20 μg protein) at 25 °C for 60 min in a total of 200 μL of Tris-HCl buffer (50 mM, pH 7.5) containing 10 mM MgCl2. […] Binding reactions were terminated by filtration through Whatman GF/B filters under reduced pressure using an MT-24 cell harvester (Brandell, Gaithersburg, MD, USA) followed by washing twice with 5 mL of cold Tris-HCl buffer.
(§3) Functional parameters were calculated using Prism 8.1.0 software (GraphPAD, San Diego, CA, USA). Data were expressed as mean ± standard error. Data were analyzed by analysis of variance (ANOVA) followed by post hoc analysis to check the statistical difference among groups with p < 0.05 being considered significant.

human A2AAR [3] = target: T1, human A2AAR; experiment: [^3H]ZM241385 radioligand binding, HEK293 membranes; details: for Ki: WT receptor, 1 nM [^3H]ZM241385, membranes, 25 °C, 60 min
Experimental: as §1, §2, §3

human A2AAR [4] = target: T1, human A2AAR; experiment: cAMP accumulation assay, antagonism of CGS21680 with Schild analysis; type: cell-based; details: for Kb / Functional Antagonism Slope (Schild): Schild analysis, CGS21680-induced cAMP; for Kb: antagonist pretreatment 20 min, read-out: Functional Antagonism KB; for Functional Antagonism Slope (Schild): linear part of plot only for XAC630, MRS7396, HMA; for Pattern of A2AAR antagonism: from functional antagonism and Schild analysis
Experimental: HEK293 cells stably expressing the human A2AAR were seeded in 96-well plates and incubated in 100 µL medium at 37 °C overnight. The medium was removed the following day and cells were then treated with assay buffer containing rolipram (10 μM) and antagonists for 20 min followed by the addition of agonists, and then incubated for 20 min. The reaction was terminated upon removal of the supernatant and addition of 100 µL Tween-20 (0.3%). Intracellular 3′,5′-cyclic adenosine monophosphate (cAMP) levels were measured with an ALPHAScreen cAMP assay kit as instructed by the manufacturer (PerkinElmer, Boston, MA, USA).
as §3
To examine and analyze mechanistically the patterns of functional antagonism by various antagonists of different chemical entities, cells expressing relatively low A2AAR levels with minimal signaling amplification were used, as recommended, since receptor overexpression is related to the constitutive activity, and signaling amplification has been linked to changing the patterns of antagonism.

A2AAR D52A mutation = system: A2AAR D52A mutation; parameters: method as in Massink et al. [10],[11]; details: ref Massink et al. [10],[11]; cited from earlier work
D52N mutant A2AAR = target: T2, D52N mutant A2AAR (Homo sapiens, UniProt P29274, D52N); experiment: [^3H]ZM241385 binding to D52N mutant A2AAR expressed in HEK293 cells; details: for Ki: 1 nM [^3H]ZM241385
T2 construct: expressed in transfected cells; host or cells: HEK293 cells
Experimental: as §2
Here we examined if HMA and MRS7396 behave in a similar manner or not.
Data were from three independent experiments performed in duplicate.

T2 sequence (P29274 whole entry D52N): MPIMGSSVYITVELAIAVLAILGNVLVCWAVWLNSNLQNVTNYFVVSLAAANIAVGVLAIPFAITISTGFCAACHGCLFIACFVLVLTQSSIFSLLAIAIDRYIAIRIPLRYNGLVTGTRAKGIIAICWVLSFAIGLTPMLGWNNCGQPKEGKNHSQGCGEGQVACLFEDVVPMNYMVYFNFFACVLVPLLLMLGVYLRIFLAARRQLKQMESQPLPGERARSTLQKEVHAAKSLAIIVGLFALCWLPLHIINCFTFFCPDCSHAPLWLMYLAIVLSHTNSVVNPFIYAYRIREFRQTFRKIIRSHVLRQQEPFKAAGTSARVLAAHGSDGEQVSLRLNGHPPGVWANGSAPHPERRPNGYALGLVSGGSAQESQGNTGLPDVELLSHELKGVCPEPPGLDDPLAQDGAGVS
T1 sequence (P29274 whole entry): as the sequence (P29274 whole entry D52N) above, with N52D counted along it

SMILES | Kd (human A2AAR [1]; saturation binding, intact cells, n = 6, read-out: Kd value from MRS7416 saturation experiments) | Ki (human A2AAR [2]) | Ki (human A2AAR [3]) | Kb (human A2AAR [4]) | Functional Antagonism Slope (Schild) (human A2AAR [4]) | Pattern of A2AAR antagonism (human A2AAR [4]) | [^3H]CGS21680 binding, percent effect of the fluorophore amide alone (human A2AAR [2]) | Fold decrease of affinity by D52A mutation (A2AAR D52A mutation) | Ki (human A2AAR [1]) | Times weaker in displacing MRS7416 binding than radioligand binding (human A2AAR [1]) | Ki (D52N mutant A2AAR) | Fold affinity decrease at D52N versus WT (D52N mutant A2AAR; [^3H]ZM241385 binding) | Fold weaker at WT than at the D52N mutant receptor (D52N mutant A2AAR; [^3H]ZM241385 binding) | Fold more potent in binding in comparison to MRS7416 (human A2AAR [3]; radioligand binding)
N=c1ccc2c(-c3ccc(C(=O)NCCCCNC(=O)COc4ccc(CCCn5ncc6c5nc(N)n5nc(-c7ccco7)nc65)cc4)cc3C(=O)O)c3ccc(N)c(S(=O)(=O)O)c3oc-2c1S(=O)(=O)O [MRS7416] | 17.6 ± 4.1 nM | 16.4 ± 1.6 nM | 23.8 ± 5.6 nM | 9.11 ± 1.77 nM | 0.68 ± 0.03 | allosteric A2AAR antagonists | – | – | – | – | – | – | – | –
NC(=O)CCCCCNC(=O)COc1ccc(/C=C/C2=[N+]3C(=Cc4ccc(-c5cccs5)n4[B-]3(F)F)C=C2)cc1 [BY630-amide] | – | – | – | – | – | – | 2.6 ± 1.5% | – | – | – | – | – | – | –
CCCn1c(=O)c2[nH]c(-c3ccc(OCC(=O)NCCNC(=O)CCNC(=O)CCCCNC(=O)CCCCCNC(=O)c4ccc(-c5c6ccc(=N)c(S(=O)(=O)O)c-6oc6c(S(=O)(=O)O)c(N)ccc56)c(C(=O)O)c4)cc3)nc2n(CCC)c1=O [XAC488] | – | 438 ± 110 nM | 388 ± 62 nM | 650 ± 120 nM | 1.03 ± 0.05 | antagonized competitively | – | – | – | – | – | – | – | –
NC(N)=NC(=O)c1nc(Cl)c(N2CCCCCC2)nc1N [HMA, 5-(N,N-hexamethylene)amiloride, reference compound] | – | 2120 ± 510 nM | 3050 ± 1210 nM | 3810 ± 450 nM | 0.59 ± 0.05 | – | – | over 10 fold | 18500 ± 2800 nM | 9–100 times | 15800 nM | 5 fold | – | –
N=c1ccc2c(-c3ccc(C(N)=O)cc3C(=O)O)c3ccc(N)c(S(=O)(=O)O)c3oc-2c1S(=O)(=O)O [AF488-amide] | – | – | – | – | – | – | 3.7 ± 1.2% | – | – | – | – | – | – | –
Nc1nc2c(cnn2CCCc2ccc(OCC(=O)NCCCCNC(=O)CCCCCNC(=O)COc3ccc(/C=C/C4=[N+]5C(=Cc6ccc(-c7cccs7)n6[B-]5(F)F)C=C4)cc3)cc2)c2nc(-c3ccco3)nn12 [MRS7396] | – | 2.83 ± 0.2 nM | 2.34 ± 0.33 nM | 1.7 ± 0.34 nM | 0.42 ± 0.02 | allosteric A2AAR antagonists | – | – | 256 ± 33 nM | 9–100 times | 0.79 ± 0.23 nM | – | ~ 3 fold | 10 fold
CCCn1c(=O)c2[nH]c(-c3ccc(OCC(=O)NCCNC(=O)CCNC(=O)CCCCNC(=O)CCCCCN)cc3)nc2n(CCC)c1=O [XAC245] | – | 220 ± 36 nM | 198 ± 33 nM | 280 ± 33 nM | 0.68 ± 0.04 | allosteric A2AAR antagonists | – | – | 152 ± 29 nM | – | – | – | – | –
N#Cc1c(N)nc(SCc2ncc[nH]2)c(C#N)c1-c1ccc(O)cc1 [LUF5834, 2-amino-4-(4-hydroxyphenyl)-6-[(1H-imidazol-2-ylmethyl)thio]-3,5-pyridinecarbonitrile, reference compound] | – | – | 13.3 ± 6.5 nM | – | – | – | – | – | 23 ± 4.6 nM | – | – | – | – | –
CCCn1c(=O)c2[nH]c(-c3ccc(OCC(=O)NCCNC(=O)CCCCCNC(=O)COc4ccc(/C=C/C5=[N+]6C(=Cc7ccc(-c8cccs8)n7[B-]6(F)F)C=C5)cc4)cc3)nc2n(CCC)c1=O [XAC630, reference compound] | – | 29 ± 5.7 nM | 36.6 ± 10.1 nM | 51.1 ± 12.2 nM | 0.47 ± 0.04 | allosteric A2AAR antagonists | – | – | 692 ± 173 nM | 9–100 times | – | – | – | –
Nc1nc2c(cnn2CCCc2ccc(OCc3ccc(S(=O)(=O)O)cc3)cc2)c2nc(-c3ccco3)nn12 [MRS7352] | – | 4.98 ± 1.13 nM | 6.24 ± 2.42 nM | 6.61 ± 0.88 nM | 0.88 ± 0.06 | – | – | – | 5.28 ± 1.31 nM | – | – | – | – | –
